Results reported in US20260248774A1, “INHIBITORS OF BACTERIAL TYPE III SECRETION SYSTEM” (MICROBIOTIX, INC., priority 2022, published 2026).

Assays:
[1] = tested on: P. aeruginosa T3SS-mediated secretion (exoT-luxCDABE reporter strain MDM852); experiment: Luciferase (exoT-lux) transcriptional reporter assay of T3SS-mediated secretion; assay type: cell-based, Pseudomonas aeruginosa; settings: read-out: LUX Sec IC50; Table 1
Description: Luciferase Transcriptional Reporter Assay of T3SS-Mediated Secretion with a Luminescent Signal.
A transcriptional fusion of the Photorhabdus luminescens lux operon (luxCDABE) to P. aeruginosa PAO1 T3SS effector gene exoT (PA0044) was constructed and used to build strain MDM852 as described previously (Aiello et al., 2010, Antimicrob Agents Chemother, 54:1988-1999). Induction of T3SS operons by Ca^++ depletion due to EGTA addition results in secretion of the T3SS negative regulator ExsE and the production of high levels of T3SS components including the luxCDABE gene products, which results in luminescence that is easily detected by a microplate reader. Inhibition of T3SS-mediated secretion of the negative regulator ExsE by a small molecule inhibitor causes reduced production of luxCDABE gene products and reduced luminescence. For inhibitor IC50 testing, compounds were added to a 96-well microplate in a concentration dilution series. Reporter strain MDM852 was grown at 37° C. in LBG to OD600 ~0.025-0.05, transferred into the microplate (50 uL/well) containing test compounds and EGTA (5 uL of 0.1 M stock solution), which was covered with a translucent gas-permeable seal (Abgene, Inc., Cat. No. AB-0718). […] Plates were incubated at room temperature for 300 min. Then, luminescence was measured in an Envision Multilabel microplate reader (PerkinElmer). The screening window coefficient, Z′-factor (see Zhang, et al., 1999, J. Biomol. Screen., 4:67-73), defined as the ratio of the positive and negative control separation band to the signal dynamic range of the assay, averaged 0.7 for the assay.

[2] = tested on: T3SS-mediated translocation of ExoU by P. aeruginosa strain MDM1561 (PA99U) into CHO cells; experiment: P. aeruginosa ExoU-dependent CHO cell killing assay for T3SS-mediated translocation; assay type: cell-based, Pseudomonas aeruginosa; settings: read-out: Translocation EC50; Table 1
Description: P. aeruginosa ExoU-Dependent CHO Cell Killing.

[3] = target: hERG (Homo sapiens, UniProt Q12809); experiment: hERG inhibition
[4] = target: CYP450 1A2 (Homo sapiens, UniProt P05177); experiment: Cytochrome P450 inhibition, CYP1A2 (Eurofins Panlabs panel); assay type: in vitro ADME; settings: assayed at 10 μM
Description: (§1) Cytochrome P450 Inhibition.
(§2) Assessment of off-target effects of priority compounds. To assess potential off-target effects, we will evaluate prioritized hits validated by in vivo testing in the Eurofins Panlabs HitProfilingScreen+CYP450 assay panel, which is performed by Eurofins as a fee for service. The assay panel of consists of assays for 30 receptors and transporters plus the five major CYP450 enzymes (1A2, 2C19, 2C9, 2D6, 3A4).

[5] = target: CYP450 3A4 (Homo sapiens, UniProt P08684); experiment: Cytochrome P450 inhibition, CYP3A4 (Eurofins Panlabs panel); assay type: in vitro ADME; settings: assayed at 10 μM
Description: as §1, §2

[6] = tested on: panel of human cytochrome P450s, receptors, and ion channels
[7] = target: CYP450 2C9 (Homo sapiens, UniProt P11712); experiment: Cytochrome P450 inhibition, CYP2C9 (Eurofins Panlabs panel); assay type: in vitro ADME; settings: assayed at 10 μM
Description: as §1, §2

[8] = Mammalian cytotoxicity (CC50), MTS conversion; assay type: cell-based, human; settings: human, HeLa cells, Table 1; HeLa; read-out: Cytotox-HeLa CC50
Description: Determination of Mammalian Cytotoxicity.
Following incubation for 3 days at 37° C. in VP-SFM, cell viability was measured with the vital tetrazolium salt stain 3-(4,5-dimethylthiazol-2-yl)-2,5 diphenyltetrazolium bromide according to the manufacturer's instructions (Promega, Madison, Wisconsin). Values were determined in triplicate using dilutions of inhibitory compound from 100 μM to 0.2 μM.

[9] = Kinetic aqueous solubility (nephelometric assay); assay type: physicochemical; settings: Table 1
Description: Solubility. The maximum aqueous solubility of analogs will be initially determined by nephelometry using a published method (44).

Chain of hERG (Q12809 whole entry): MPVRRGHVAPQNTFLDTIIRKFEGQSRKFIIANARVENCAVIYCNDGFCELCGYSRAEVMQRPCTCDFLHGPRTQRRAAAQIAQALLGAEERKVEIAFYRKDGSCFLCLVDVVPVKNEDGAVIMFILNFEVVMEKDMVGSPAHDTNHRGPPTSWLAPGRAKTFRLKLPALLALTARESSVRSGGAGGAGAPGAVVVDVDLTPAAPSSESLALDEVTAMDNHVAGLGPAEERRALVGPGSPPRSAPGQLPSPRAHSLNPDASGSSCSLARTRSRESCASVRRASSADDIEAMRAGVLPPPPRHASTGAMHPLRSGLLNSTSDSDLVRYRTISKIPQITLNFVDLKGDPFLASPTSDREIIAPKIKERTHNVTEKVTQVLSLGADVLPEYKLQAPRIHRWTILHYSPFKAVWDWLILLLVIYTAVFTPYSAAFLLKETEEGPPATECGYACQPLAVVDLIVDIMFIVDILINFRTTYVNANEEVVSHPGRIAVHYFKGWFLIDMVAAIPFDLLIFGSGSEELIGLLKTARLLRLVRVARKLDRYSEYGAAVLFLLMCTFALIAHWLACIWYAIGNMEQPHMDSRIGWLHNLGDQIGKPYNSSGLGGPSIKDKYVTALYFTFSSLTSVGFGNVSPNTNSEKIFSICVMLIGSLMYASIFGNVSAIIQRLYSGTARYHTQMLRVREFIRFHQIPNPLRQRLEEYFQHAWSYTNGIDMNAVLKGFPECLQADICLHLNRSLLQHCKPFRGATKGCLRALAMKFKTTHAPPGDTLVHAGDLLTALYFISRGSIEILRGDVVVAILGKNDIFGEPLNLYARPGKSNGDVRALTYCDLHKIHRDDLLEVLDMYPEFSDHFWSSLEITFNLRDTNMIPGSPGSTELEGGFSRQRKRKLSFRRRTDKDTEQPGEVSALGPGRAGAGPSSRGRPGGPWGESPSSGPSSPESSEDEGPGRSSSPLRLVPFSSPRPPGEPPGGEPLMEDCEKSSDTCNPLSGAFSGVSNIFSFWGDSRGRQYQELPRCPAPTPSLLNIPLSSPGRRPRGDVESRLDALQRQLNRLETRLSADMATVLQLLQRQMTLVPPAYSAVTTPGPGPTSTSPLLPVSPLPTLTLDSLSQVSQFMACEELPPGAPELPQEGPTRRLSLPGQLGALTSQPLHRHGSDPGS
Chain of CYP450 2C9 (P11712 whole entry): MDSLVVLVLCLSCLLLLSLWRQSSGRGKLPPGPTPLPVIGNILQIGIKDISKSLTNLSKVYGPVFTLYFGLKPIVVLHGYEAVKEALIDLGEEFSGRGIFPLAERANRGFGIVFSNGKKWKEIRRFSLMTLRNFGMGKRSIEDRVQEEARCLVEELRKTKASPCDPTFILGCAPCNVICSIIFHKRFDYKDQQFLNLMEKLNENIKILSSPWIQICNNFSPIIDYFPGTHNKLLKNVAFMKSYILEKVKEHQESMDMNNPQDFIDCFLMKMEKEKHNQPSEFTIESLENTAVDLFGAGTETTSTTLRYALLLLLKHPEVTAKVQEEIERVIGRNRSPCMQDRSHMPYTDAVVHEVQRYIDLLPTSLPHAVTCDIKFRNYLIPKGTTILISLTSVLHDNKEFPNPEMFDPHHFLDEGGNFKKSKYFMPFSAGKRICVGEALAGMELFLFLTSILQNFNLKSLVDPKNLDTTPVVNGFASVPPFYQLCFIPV
Chain of CYP450 3A4 (P08684 whole entry): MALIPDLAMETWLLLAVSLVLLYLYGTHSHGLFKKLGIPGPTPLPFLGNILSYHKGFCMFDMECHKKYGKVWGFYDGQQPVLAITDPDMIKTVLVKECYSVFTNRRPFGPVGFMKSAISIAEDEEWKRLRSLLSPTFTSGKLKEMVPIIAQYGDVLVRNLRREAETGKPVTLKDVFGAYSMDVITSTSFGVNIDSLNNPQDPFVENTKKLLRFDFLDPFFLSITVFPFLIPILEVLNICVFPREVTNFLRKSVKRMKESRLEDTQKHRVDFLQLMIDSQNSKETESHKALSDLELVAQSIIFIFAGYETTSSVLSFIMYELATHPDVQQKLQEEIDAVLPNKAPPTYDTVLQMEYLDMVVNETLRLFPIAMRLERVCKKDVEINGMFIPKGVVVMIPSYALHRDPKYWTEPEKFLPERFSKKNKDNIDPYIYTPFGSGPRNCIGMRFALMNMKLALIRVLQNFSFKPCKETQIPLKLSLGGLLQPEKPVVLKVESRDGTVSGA
Chain of CYP450 1A2 (P05177 whole entry): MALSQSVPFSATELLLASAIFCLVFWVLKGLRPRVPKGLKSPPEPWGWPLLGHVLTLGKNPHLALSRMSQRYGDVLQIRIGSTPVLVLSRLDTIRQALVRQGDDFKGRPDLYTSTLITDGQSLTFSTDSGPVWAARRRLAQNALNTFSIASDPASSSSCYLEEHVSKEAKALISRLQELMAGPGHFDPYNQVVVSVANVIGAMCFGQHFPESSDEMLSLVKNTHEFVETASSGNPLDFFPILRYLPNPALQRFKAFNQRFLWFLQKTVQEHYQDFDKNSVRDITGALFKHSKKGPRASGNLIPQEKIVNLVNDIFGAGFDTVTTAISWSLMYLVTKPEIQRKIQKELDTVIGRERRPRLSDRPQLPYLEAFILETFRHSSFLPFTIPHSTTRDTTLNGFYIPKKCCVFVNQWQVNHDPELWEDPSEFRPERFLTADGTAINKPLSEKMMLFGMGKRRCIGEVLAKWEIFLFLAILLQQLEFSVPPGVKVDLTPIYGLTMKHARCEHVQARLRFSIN

SMILES: CCC(Oc1ccc(Cl)c(Cl)c1Cl)C(=O)NCc1ccc(F)cc1 (centres unmarked) [MBX-4532]
- IC50 [1]: 1630 nM
- EC50 [2]: 1700 nM
- IC50 ([3]; Table 1, read-out: hERG INH IC50): > 100000 nM
- Potassium Channel hERG ([3]; assayed at 10 μM): 26
- CYP450, 1A2 [4]: 24
- CYP450, 3A4 [5]: 13
- Calcium Channel L-Type, Dihydropyridine ([6]; assayed at 10 μM): 56
- GABAA, Flunitrazepam, Central ([6]; assayed at 10 μM): −1
- GABAA, Muscimol, Central ([6]; assayed at 10 μM): 2
- Glutamate, NMDA, Phencyclidine ([6]; assayed at 10 μM): 29
- Imidazoline I2, Central ([6]; assayed at 10 μM): 27
- Nicotinic Acetylcholine αβ4 ([6]; assayed at 10 μM): 7
- Phorbol Ester ([6]; assayed at 10 μM): 5
- Potassium Channel [KATP] ([6]; assayed at 10 μM): 0
- Rolipram ([6]; assayed at 10 μM): 23
- Sodium Channel, Site 2 ([6]; assayed at 10 μM): 39
- specificity vs mammalian receptors and enzymes, including hERG ([6]; assessment in text): not specific enough
- CYP450, 2C9 [7]: −30
- CC50 at 3 days [8]: > 200000 nM
- Sol [9]: 25 µM
